Columns and labels:
[1] = molecular target: Rod cGMP-specific 3',5'-cyclic phosphodiesterase subunit alpha (Homo sapiens, UniProt P16499); format: functional
[2] = molecular target: T1, Peroxisome proliferator-activated receptor alpha (Homo sapiens, UniProt Q07869); format: functional
T1 sequence (Q07869 whole entry): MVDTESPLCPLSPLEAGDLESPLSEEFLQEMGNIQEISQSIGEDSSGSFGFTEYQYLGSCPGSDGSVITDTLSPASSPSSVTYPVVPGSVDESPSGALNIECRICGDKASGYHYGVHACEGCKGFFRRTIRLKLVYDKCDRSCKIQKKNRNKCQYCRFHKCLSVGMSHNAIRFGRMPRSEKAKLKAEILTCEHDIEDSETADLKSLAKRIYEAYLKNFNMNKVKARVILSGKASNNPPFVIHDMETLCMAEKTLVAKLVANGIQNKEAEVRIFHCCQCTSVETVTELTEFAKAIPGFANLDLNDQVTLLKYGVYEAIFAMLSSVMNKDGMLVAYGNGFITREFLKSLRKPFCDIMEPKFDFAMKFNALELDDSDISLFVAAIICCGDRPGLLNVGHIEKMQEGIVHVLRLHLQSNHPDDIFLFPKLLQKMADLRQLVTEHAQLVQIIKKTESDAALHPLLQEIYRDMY

[3] = molecular target: T2, Oxysterols receptor LXR-beta (Homo sapiens, UniProt P55055); format: functional
T2 sequence (P55055 whole entry): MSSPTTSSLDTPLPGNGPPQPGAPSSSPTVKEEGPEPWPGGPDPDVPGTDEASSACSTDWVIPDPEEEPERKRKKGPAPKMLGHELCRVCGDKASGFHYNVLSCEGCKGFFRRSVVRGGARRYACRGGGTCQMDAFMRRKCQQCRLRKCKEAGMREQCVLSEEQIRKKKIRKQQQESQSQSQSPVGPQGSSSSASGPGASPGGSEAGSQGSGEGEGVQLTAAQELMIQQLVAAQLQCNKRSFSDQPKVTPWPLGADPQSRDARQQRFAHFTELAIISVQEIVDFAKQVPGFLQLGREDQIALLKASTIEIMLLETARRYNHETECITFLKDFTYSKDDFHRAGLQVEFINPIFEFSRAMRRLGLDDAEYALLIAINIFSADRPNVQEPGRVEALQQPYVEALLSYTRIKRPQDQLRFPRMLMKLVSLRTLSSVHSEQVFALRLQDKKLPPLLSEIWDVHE

[4] = molecular target: T3, Oxysterols receptor LXR-alpha (Homo sapiens, UniProt Q13133); format: functional
T3 sequence (Q13133 whole entry): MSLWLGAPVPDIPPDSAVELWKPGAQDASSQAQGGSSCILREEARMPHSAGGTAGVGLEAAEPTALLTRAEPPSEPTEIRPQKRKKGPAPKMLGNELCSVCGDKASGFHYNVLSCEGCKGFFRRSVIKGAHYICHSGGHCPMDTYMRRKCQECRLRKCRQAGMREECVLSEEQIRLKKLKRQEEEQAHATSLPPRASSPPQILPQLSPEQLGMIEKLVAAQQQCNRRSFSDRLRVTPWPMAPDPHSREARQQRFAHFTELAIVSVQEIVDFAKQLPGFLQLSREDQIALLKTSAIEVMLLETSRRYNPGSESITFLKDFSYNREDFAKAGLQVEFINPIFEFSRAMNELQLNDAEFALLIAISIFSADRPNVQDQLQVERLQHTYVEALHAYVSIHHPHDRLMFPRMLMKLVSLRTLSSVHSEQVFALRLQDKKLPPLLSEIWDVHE

[5] = molecular target: T3, Oxysterols receptor LXR-alpha; format: functional; remark: listed apart in the source
[6] = molecular target: T4, Retinoic acid receptor alpha (Homo sapiens, UniProt P10276); format: functional, cell-based
T4 sequence (P10276 whole entry): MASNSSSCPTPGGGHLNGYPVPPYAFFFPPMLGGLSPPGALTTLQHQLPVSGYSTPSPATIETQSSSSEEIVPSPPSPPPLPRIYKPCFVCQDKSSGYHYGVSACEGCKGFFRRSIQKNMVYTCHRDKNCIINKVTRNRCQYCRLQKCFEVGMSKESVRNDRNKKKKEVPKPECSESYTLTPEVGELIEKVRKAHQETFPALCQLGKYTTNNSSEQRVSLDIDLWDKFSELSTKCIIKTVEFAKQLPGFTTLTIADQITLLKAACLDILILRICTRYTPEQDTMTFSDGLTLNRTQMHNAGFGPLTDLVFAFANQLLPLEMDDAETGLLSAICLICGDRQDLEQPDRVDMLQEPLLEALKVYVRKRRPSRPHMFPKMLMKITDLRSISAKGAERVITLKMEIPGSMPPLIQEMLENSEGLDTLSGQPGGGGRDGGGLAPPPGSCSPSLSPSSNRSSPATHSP

[7] = molecular target: 5-hydroxytryptamine receptor 2A (Homo sapiens, UniProt P28223)
Chain of 5-hydroxytryptamine receptor 2A (P28223 whole entry): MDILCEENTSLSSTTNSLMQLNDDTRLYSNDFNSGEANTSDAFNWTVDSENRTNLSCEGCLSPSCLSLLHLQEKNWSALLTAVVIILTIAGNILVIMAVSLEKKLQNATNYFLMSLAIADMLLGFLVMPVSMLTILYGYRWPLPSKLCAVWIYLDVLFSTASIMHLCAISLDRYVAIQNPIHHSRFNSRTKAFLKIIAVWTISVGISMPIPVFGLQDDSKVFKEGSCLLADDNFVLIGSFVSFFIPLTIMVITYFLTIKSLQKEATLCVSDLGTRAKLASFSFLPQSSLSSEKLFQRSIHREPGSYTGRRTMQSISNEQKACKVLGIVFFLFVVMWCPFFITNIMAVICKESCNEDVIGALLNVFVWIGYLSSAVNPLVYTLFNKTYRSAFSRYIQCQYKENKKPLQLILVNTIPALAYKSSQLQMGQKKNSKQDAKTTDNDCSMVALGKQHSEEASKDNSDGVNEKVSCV

[8] = molecular target: T5, 5-hydroxytryptamine receptor 1A (Homo sapiens, UniProt P08908)
T5 sequence (P08908 whole entry): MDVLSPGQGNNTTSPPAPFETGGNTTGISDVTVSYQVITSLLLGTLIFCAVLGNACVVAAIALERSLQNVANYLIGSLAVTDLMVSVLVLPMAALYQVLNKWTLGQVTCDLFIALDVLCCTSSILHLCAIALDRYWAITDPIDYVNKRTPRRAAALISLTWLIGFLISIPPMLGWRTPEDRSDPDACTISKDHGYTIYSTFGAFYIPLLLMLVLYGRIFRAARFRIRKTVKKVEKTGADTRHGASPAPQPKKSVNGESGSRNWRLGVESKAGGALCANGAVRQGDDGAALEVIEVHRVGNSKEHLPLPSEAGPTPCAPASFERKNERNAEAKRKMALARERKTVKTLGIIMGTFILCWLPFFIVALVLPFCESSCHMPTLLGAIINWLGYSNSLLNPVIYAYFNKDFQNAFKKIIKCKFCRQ

D(1A) dopamine receptor = D(1A) dopamine receptor (Homo sapiens, UniProt P21728)
Chain of D(1A) dopamine receptor (P21728 whole entry): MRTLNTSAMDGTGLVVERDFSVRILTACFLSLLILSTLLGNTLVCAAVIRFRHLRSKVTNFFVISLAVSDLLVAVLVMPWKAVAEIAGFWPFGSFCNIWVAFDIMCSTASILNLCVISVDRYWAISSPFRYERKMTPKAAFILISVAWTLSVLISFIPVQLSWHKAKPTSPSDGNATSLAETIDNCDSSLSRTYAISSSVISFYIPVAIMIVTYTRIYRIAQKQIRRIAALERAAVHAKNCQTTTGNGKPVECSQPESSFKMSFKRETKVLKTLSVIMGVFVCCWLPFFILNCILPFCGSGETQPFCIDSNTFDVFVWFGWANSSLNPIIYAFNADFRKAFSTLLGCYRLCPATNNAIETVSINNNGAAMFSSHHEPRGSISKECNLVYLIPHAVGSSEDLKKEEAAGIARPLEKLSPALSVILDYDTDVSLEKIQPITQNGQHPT
Note: assay procedure not described here.

Chain of Rod cGMP-specific 3',5'-cyclic phosphodiesterase subunit alpha (P16499 whole entry): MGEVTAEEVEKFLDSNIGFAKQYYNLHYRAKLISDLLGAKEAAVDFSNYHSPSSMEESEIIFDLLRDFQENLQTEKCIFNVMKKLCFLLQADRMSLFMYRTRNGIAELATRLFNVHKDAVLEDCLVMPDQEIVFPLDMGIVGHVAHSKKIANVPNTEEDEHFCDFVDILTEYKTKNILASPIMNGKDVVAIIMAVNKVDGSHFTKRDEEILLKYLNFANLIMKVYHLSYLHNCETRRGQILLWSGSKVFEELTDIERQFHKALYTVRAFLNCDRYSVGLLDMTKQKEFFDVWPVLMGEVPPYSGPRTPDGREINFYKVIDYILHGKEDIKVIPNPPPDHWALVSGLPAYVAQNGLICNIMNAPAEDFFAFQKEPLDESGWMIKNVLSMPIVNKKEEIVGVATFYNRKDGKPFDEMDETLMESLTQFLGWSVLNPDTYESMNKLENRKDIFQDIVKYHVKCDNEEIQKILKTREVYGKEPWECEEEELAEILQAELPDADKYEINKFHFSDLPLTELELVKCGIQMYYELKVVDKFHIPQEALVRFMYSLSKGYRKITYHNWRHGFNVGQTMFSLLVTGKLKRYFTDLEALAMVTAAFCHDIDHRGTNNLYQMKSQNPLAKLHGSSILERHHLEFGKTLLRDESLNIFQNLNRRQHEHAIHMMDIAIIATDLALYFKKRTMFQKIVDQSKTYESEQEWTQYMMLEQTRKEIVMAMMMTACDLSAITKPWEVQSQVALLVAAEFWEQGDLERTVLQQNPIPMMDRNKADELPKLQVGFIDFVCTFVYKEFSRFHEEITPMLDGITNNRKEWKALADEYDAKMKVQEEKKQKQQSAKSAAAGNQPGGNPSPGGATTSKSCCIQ

`Cc1onc(-c2ccccc2)c1-c1ccc(S(N)(=O)=O)cc1` [VALDECOXIB] was tested, and the AC50 [1] was > 10 µM.
With `COc1ccccc1Oc1c(NS(=O)(=O)c2ccc(C(C)(C)C)cc2)nc(-c2ncccn2)nc1OCCO` [BOSENTAN] the AC50 [2] was > 30 µM.
For `N[C@@H](CC(=O)N1CCn2c(nnc2C(F)(F)F)C1)Cc1cc(F)c(F)cc1F` [SITAGLIPTIN], the AC50 [1] was > 10 µM.
For `CC(C(=O)O)c1ccc2c(c1)[nH]c1ccc(Cl)cc12` (centres undefined) [CARPROFEN], the AC50 [3] was > 30 µM, the AC50 [4] was > 30 µM and the AC50 [5] was > 30 µM. The AC50 [6] was > 30 µM.
`CN(C)CCc1c[nH]c2ccc(Cn3cncn3)cc12` [RIZATRIPTAN] was tested, and the AC50 [7] was > 10 µM.
In the case of `COc1cc2nccc(Oc3ccc(NC(=O)C4(C(=O)Nc5ccc(F)cc5)CC4)cc3)c2cc1OC` [CABOZANTINIB], the AC50 [8] is reported as > 30 µM and the AC50 (D(1A) dopamine receptor) is reported as > 30 µM.
`CCN(CC)CCNC(=O)c1c(C)[nH]c(/C=C2\C(=O)Nc3ccc(F)cc32)c1C` [SUNITINIB] was tested, and the AC50 [4] was > 30 µM, the AC50 [5] was > 10 µM and the AC50 [6] was > 3 µM.
In the case of `CC(C)Cc1ccc(C(C)C(=O)O)cc1` (centres undefined) [IBUPROFEN], the AC50 [2] is reported as > 30 µM.

— ChEMBL document CHEMBL5291721, “A preclinical secondary pharmacology resource illuminates target-adverse drug reaction associations of marketed drugs” (Nat Commun, 2023)
